Structures are written as SMILES.

One assay relates to B16 melanoma. Nature of the assay: Adoptive transfer of Pmel-1 cells into B6 mice with pre-established B16 melanoma, tumor size over time. Type of assay: in vivo, mouse. Conditions: Pmel-1 cells treated during ex vivo culture, transferred into B16 melanoma-bearing B6 mice. On the procedure: Pmel-1 T cells (1×10^4 to 1×10^6) were transferred into sublethally irradiated B6 mice (5.0 Gy). IL-2 (100,000 IU) was administered intraperitoneally twice a day, and BM-derived DCs which have been pulsed with gp100 (10 μg) were transferred via tail vein, for constitutively three days after adoptive transfer. C57BL/6 mice were injected subcutaneously with 5×10^5 B16 melanoma cells. In some experiments, Ezh2^fl/fl mice were intravenously received VVA-gp100 or VVA-OVA.
The Abs used for flow cytometric analyses were purchased from eBioscience, BioLegend, or BD Biosciences. Flow cytometric analyses were performed with FACS LSRII (BD Biosciences) as described (Zhang et al., 2005, Nat Med, 11:1299-1305; Zhang et al., 2002, J Immunol, 169:7111-7118). B16 mouse melanoma cell line was from American Type Culture Collection.

A further assay relates to pEzh2S21 and H3K27me3. In words: Immunoblot analysis of TCR-activated Pmel-1 CD8+ T cells. It counts as cell-based, mouse. To be noted: proliferating Pmel-1 CD8+ T cells stimulated in vitro for 7 days, with or without MK2206. Background: A western blot detects proteins with antibodies after separation by electrophoresis.
In assay [1] the test system is Id3, Id2, Eomes and Prdm1. Nature of the assay: Real-time RT-PCR analysis of Ezh2-targeted genes in cultured Pmel-1 cells. Type of assay: cell-based, mouse. Conditions: WT Pmel-1 cells, anti-CD3/CD28 Ab+IL-2, inhibitor treatment for 7 days. As for the experimental part:
Splenic and LN CD44loCD8+ TN cells were prepared as previously described (Zhang et al., 2002, J Immunol, 169:7111-7118; Zhang et al., 2005, Nat Med, 11:1299-1305). The purity was usually 90-95%. CD8+ T cell cultures were set up as previously described (He et al., 2013, Blood, 122:4119-4128; Tong et al., 2014, J Immunol, 192:5012-5022). In brief, CD44loCD8+ naive T cells (were cultured in the presence of anti-CD3 (2 μg/ml) and anti-CD28 (2.0 μg/ml) Abs together with recombinant human IL-2 (10 ng/ml; R&D Systems). In vivo sorted T cells and cultured T cells were restimulated with anti-CD3 Ab (1 μg/ml; BioLegend) or human gp100 (10^−6 M) for 5 hours before intracellular staining. Bone marrow-derived dendritic cells (DCs) were generated as previously described (Zhang et al., 2005, Nat Med, 11:1299-1305). For TAT-Cre experiments, 10^6 purified CD8^+ T cells or splenocytes were incubated in 100 μL serum-free RPMI containing 90 to 100 μg/mL TAT-Cre fusion protein for 16 hours at 37° C. After extensive washing, treated cells were kept in vitro culture for another 5 days.
The MigR1 retroviral vector system was described previously (Tong et al., 2014, J Immunol, 192:5012-5022; Pear et al., 1998, Blood, 92:3780-3792). Ezh2, Ezh2 mutants, and Id3 cDNA was cloned into Mig-R1 (GFP) vector. For retroviral infection, CD8+ T cells were prestimulated with anti-CD3/CD28 Ab for 24 hours, and then the retrovirus supernatant was added in the presence of 8 μg/ml polybrene (Sigma). Cells were spinoculated at 3000 rpm, 32° C. for 3 hours. The same retroviral infection procedure was repeated 24 hours later (Tong et al., 2014, J Immunol, 192:5012-5022).
RNA was isolated with an RNeasy Mini kit (Qiagen) and cDNA was generated by reverse transcription (Applied Biosystems). Real-time RT-PCR was performed with a SYBR green PCR mix (ABI Biosystems) in the Realplex Eppendorf Real-time PCR instrument (Eppendorf AG). Gene expression levels were calculated relative to the 18s gene. Data were collected and quantitatively analyzed on a Realplex sequence detection system (Eppendorf AG), and Applied Biosystems StepOne Plus Real-time PCR systems (Applied Biosystems).
(In qPCR the cycle at which signal appears reflects the starting amount.)

The test system of assay [2] is promoter regions of Id3, Id2, Eomes and Prdm1 loci. Nature of the assay: ChIP analysis of Ezh2 and H3K27me3 deposition in cultured Pmel-1 cells. It counts as cell-based, mouse. To be noted: Akt inhibition. On the procedure:
A Millipore ChIP kit and Diagenode ChIP kit was used for ChIP assay as described by the manufacturer. DNA-protein complexes were crosslinked with formaldehyde at a final concentration of 1%. Sonicated extracts were precleared and incubated with Abs specific to Ezh2, H3K27me3, or nonspecific anti-IgG. The immunoprecipitated DNA was quantified by real-time quantitative PCR.

For `NC1(c2ccc(-c3nc4ccn5c(=O)[nH]nc5c4cc3-c3ccccc3)cc2)CCC1` [MK2206], in the assay with B16 melanoma, the “anti-tumor activity (tumor growth)” value was “greater anti-tumor activity than untreated Pmel-1 cells, but was less potent than Ezh2S21A-transduced Pmel-1 cells”. Moreover, in the assay with pEzh2S21 and H3K27me3, the “H3K27me3 (immunoblot)” value is reported as “increase” and the “pEzh2S21 (immunoblot)” value was “marked decrease”. For the same compound, in assay [1], the Eomes expression entry is recorded as “reducing”, the Id2 expression result was “reducing”, the Id3 expression entry is “upregulated” and the Prdm1 expression entry is recorded as “reducing”. In assay [2], the “amount of Ezh2 at the promoter regions of Id3, Id2, Eomes and Prdm1 loci” value is “significantly increased”; the “amount of H3K27me3 at the promoter regions of Id3, Id2, Eomes and Prdm1 loci” value was “significantly increased”.

Regarding `Oc1cccc(-c2nc(N3CCOCC3)c3oc4ncccc4c3n2)c1` [PI103], in assay [1], the Eomes expression entry was “reducing”, the Id2 expression entry is “reducing”, the Id3 expression entry was “upregulated” and the Prdm1 expression entry is “reducing”.

The record behind these values is patent publication US12024715B2, “Compositions and methods for improved T cells” (Temple University-Of The Commonwealth System of Higher …, priority 2017, dated 2024).
